Assay results taken from ChEMBL document CHEMBL1201862, “PubChem BioAssay data set” (2004).
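Method: 48-hour compound exposure of cells in 96-well plates, five concentrations, linear interpolation of endpoints. Here, GI50 denotes the concentration required for 50% inhibition of growth.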 The source made the active and inactive calls. No stated cut-off is given here; in the data, active = GI50 up to about 1.1 µM and inactive = higher.

Experiments:
Experiment in all cases: NCI tumour cell line growth inhibition, 48 h
[1] = system: A498
[2] = system: ACHN
[3] = system: DU-145
[4] = system: HCC 2998
[5] = system: HOP-62
[6] = system: Hs-578T
[7] = system: LOX IMVI
[8] = system: NCI-H23
[9] = system: NCI/ADR-RES
[10] = system: OVCAR-5
[11] = system: OVCAR-8
[12] = system: PC-3
[13] = system: SF-268
[14] = system: SF-539
[15] = system: SK-MEL-2
[16] = system: SK-MEL-5
[17] = system: SW-620
[18] = system: UACC-62
[19] = system: RXF 393

Measured: GI50

O=C(O)[C@@H]1CCC(=O)N1C(c1ccc2c(c1)OCO2)c1ccc2c(c1)OCO2
inactive: [1] > 100 µM | [2] > 100 µM | [3] > 100 µM | [4] > 100 µM | [5] > 100 µM | [6] > 100 µM | [7] > 100 µM | [8] > 100 µM | [9] > 100 µM | [10] > 100 µM | [11] > 100 µM | [12] > 100 µM | [13] > 100 µM | [14] > 100 µM | [15] > 100 µM | [16] > 100 µM | [17] > 100 µM | [18] > 100 µM

O=c1oc2ccccc2cc1-c1cn2c(n1)sc1ccccc12
inactive: [2] > 100 µM | [3] > 100 µM | [4] > 100 µM | [5] > 100 µM | [6] > 100 µM | [7] > 100 µM | [8] > 100 µM | [9] > 100 µM | [11] 83.9 µM | [12] > 100 µM | [19] > 100 µM | [13] 52.6 µM | [14] > 100 µM | [15] > 100 µM | [16] > 100 µM | [17] > 100 µM | [18] > 100 µM

CCCCCCCCCCCCCCCCCCNC(=S)NC=C1C(=O)c2ccccc2C1=O
inactive: [1] 19.2 µM | [2] 10.9 µM | [3] 6.12 µM | [4] 2.13 µM | [5] 9.86 µM | [6] 16.3 µM | [7] 3.9 µM | [8] 15.6 µM | [9] 14.2 µM | [10] 13.4 µM | [11] 13.2 µM | [12] 3.83 µM | [13] 5.62 µM | [14] 18.3 µM | [16] 18.2 µM | [17] 11.1 µM

S=C(N1CCN(c2ccc(Cl)c(Cl)c2)CC1)N1CCN(c2ccc(Cl)c(Cl)c2)CC1
inactive: [2] 14.4 µM | [3] 12.4 µM | [4] 13.7 µM | [5] 12.5 µM | [6] 6.52 µM | [8] 15.3 µM | [9] 16.3 µM | [10] 19.6 µM | [11] 14.8 µM | [12] 12.7 µM | [19] 14.3 µM | [13] 14.4 µM | [15] 19.9 µM | [16] 15.1 µM | [17] 17.5 µM | [18] 15.5 µM

CCCC(=O)OCC1OC(n2cc(F)c(=O)[nH]c2=O)C(F)C1OC(=O)CCC (stereo not drawn)
inactive: [1] 6.38 µM | [2] 25.6 µM | [3] 15.3 µM | [5] 4.11 µM | [6] 26.5 µM | [7] 47.8 µM | [8] 35.7 µM | [9] 7.48 µM | [10] 96.6 µM | [11] 19.6 µM | [12] > 100 µM | [19] 54.7 µM | [13] 8.53 µM | [14] 1.63 µM | [15] > 100 µM | [16] 36.8 µM | [17] 53.6 µM | [18] 25.9 µM

Cc1ccc(C)n1-n1c(Cc2ccccc2)n[nH]c1=O
inactive: [1] > 100 µM | [2] > 100 µM | [3] > 100 µM | [4] > 100 µM | [5] > 100 µM | [6] > 100 µM | [7] > 100 µM | [9] > 100 µM | [10] > 100 µM | [11] > 100 µM | [12] > 100 µM | [19] > 100 µM | [13] > 100 µM | [15] > 100 µM | [16] > 100 µM | [17] > 100 µM | [18] > 100 µM

Cn1cc(C=C(C#N)C#N)c(=O)n(C)c1=O
inactive: [1] > 100 µM | [2] > 100 µM | [3] > 100 µM | [5] > 100 µM | [6] > 100 µM | [7] > 100 µM | [8] > 100 µM | [9] > 100 µM | [10] > 100 µM | [11] > 100 µM | [12] > 100 µM | [19] > 100 µM | [13] > 100 µM | [14] > 100 µM | [15] > 100 µM | [16] > 100 µM | [17] 56.1 µM | [18] > 100 µM

c1ccc2c(CC3NCCN3)cccc2c1
inactive: [1] > 100 µM | [2] > 100 µM | [3] > 100 µM | [5] > 100 µM | [6] > 100 µM | [7] > 100 µM | [8] > 100 µM | [9] > 100 µM | [10] > 100 µM | [11] > 100 µM | [12] > 100 µM | [19] > 100 µM | [13] > 100 µM | [14] > 100 µM | [15] > 100 µM | [16] > 100 µM | [17] > 100 µM | [18] > 100 µM

CCOC(=O)C(C)c1nc2cc(F)c(F)cc2[nH]c1=O (stereo not drawn)
inactive: [2] > 100 µM | [3] > 100 µM | [4] > 100 µM | [5] > 100 µM | [6] > 100 µM | [7] > 100 µM | [8] > 100 µM | [9] > 100 µM | [10] > 100 µM | [11] > 100 µM | [12] > 100 µM | [19] > 100 µM | [13] > 100 µM | [14] > 100 µM | [15] > 100 µM | [16] > 100 µM | [17] > 100 µM | [18] > 100 µM

Clc1cc(Cl)nc(Nc2ccc3c(c2)CCC3)n1
inactive: [1] 31.3 µM | [2] 35.1 µM | [3] 61.2 µM | [4] 16.4 µM | [6] 28.4 µM | [7] 32.1 µM | [8] 39.6 µM | [9] 48 µM | [10] 77.8 µM | [11] 72.3 µM | [12] 61.9 µM | [13] 44.8 µM | [14] > 100 µM | [15] 45 µM | [16] 23.8 µM | [17] 46.6 µM | [18] 46.1 µM

CC(C)=C[C@@H]1C[C@H](C)c2c(O)cc(C)c3c2C1=C(C)C(=O)C3=O [ELISABATIN A]
inactive: [1] 19.1 µM | [2] 17.6 µM | [3] 15.3 µM | [4] 21.8 µM | [5] 17.4 µM | [6] 19.6 µM | [7] 16.3 µM | [8] 13.5 µM | [9] 18.9 µM | [10] 24.7 µM | [11] 16.9 µM | [12] 10.5 µM | [13] 15 µM | [14] 17.9 µM | [16] 13.6 µM | [17] 16.1 µM | [18] 14.7 µM

CN(C)C(=O)Oc1ccc[n+](C)c1 [PYRIDOSTIGMINE BROMIDE]
inactive: [1] > 100 µM | [2] > 100 µM | [3] > 100 µM | [4] > 100 µM | [5] > 100 µM | [6] > 100 µM | [7] > 100 µM | [8] > 100 µM | [9] > 100 µM | [10] > 100 µM | [11] > 100 µM | [12] > 100 µM | [19] > 100 µM | [13] > 100 µM | [15] > 100 µM | [16] > 100 µM | [17] > 100 µM | [18] > 100 µM
